Source: PubChem BioAssay AID256 (DTP/NCI, 2004)
Toxic doses and inconclusive results are not listed. The calls were made as follows: active = survival T/C of 150% or more; inactive = T/C below 125% in these data.

Test system: CD2F1 mice, L1210 leukemia ip, survival T/C
Experiment: NCI In Vivo Anticancer Drug Screen. Data for tumor model L1210 Leukemia (intraperitoneal) in CD2F1 (CDF1) mice
Conditions: higher = longer survival
Summary of the method: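 Ratio T/C, where T is the treated-group value and C the vehicle-dosed control value, from mice implanted with a transplantable tumor.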

[1] = endpoint: mean survival time, dose: 100.0 mg/kg/injection, schedule: Q01DX009 (ip), vehicle: saline with Tween-80
[2] = endpoint: mean survival time, dose: 200.0 mg/kg/injection, schedule: Q01DX009 (ip), vehicle: saline with Tween-80
[3] = endpoint: mean survival time, dose: 400.0 mg/kg/injection, schedule: Q01DX009 (ip), vehicle: saline with Tween-80

Measured: T/C

c1ccc([P+](Cc2ccc3ccccc3n2)(c2ccccc2)c2ccccc2)cc1
inactive: endpoint: mean survival time, dose: 6.25 mg/kg/injection, schedule: Q01DX009 (ip), vehicle: saline 108 % of control | endpoint: mean survival time, dose: 12.5 mg/kg/injection, schedule: Q01DX009 (ip), vehicle: saline 112 % of control

CSCC12CCCC=C1CC1(CC2)OCCO1 (configuration not stated)
inactive: endpoint: mean survival time, dose: 100.0 mg/kg/injection, schedule: Q01DX001 (ip), vehicle: saline with Tween-80 96 % of control | endpoint: mean survival time, dose: 200.0 mg/kg/injection, schedule: Q01DX001 (ip), vehicle: saline with Tween-80 96 % of control | endpoint: mean survival time, dose: 400.0 mg/kg/injection, schedule: Q01DX001 (ip), vehicle: saline with Tween-80 96 % of control

NS(=O)(=O)c1ccc(NC(=S)NC(=O)c2cccc3ccccc23)cc1
inactive: [1] 93 % of control | [2] 93 % of control | [3] 93 % of control

CCCc1cccc[n+]1CC(=O)c1ccccc1
inactive: endpoint: mean survival time, dose: 6.25 mg/kg/injection, schedule: Q04DX003 (ip), vehicle: saline 106 % of control | endpoint: mean survival time, dose: 12.5 mg/kg/injection, schedule: Q04DX003 (ip), vehicle: saline 98 % of control | endpoint: mean survival time, dose: 25.0 mg/kg/injection, schedule: Q04DX003 (ip), vehicle: saline 98 % of control

O=C(NNC(=O)c1ccncc1)NS(=O)(=O)c1ccc(Cl)cc1
inactive: endpoint: mean survival time, dose: 50.0 mg/kg/injection, schedule: Q01DX009 (ip), vehicle: Klucel (hydroxypropylcellulose) (HPC) 101 % of control | endpoint: mean survival time, dose: 100.0 mg/kg/injection, schedule: Q01DX009 (ip), vehicle: Klucel (hydroxypropylcellulose) (HPC) 90 % of control | endpoint: mean survival time, dose: 200.0 mg/kg/injection, schedule: Q01DX009 (ip), vehicle: Klucel (hydroxypropylcellulose) (HPC) 97 % of control

S=C1SCCN1C1CCCCC1
inactive: [1] 102 % of control | endpoint: mean survival time, dose: 100.0 mg/kg/injection, schedule: Q04DX003 (ip), vehicle: saline with Tween-80 92 % of control | [2] 96 % of control | endpoint: mean survival time, dose: 200.0 mg/kg/injection, schedule: Q04DX003 (ip), vehicle: saline with Tween-80 96 % of control | [3] 93 % of control | endpoint: mean survival time, dose: 400.0 mg/kg/injection, schedule: Q04DX003 (ip), vehicle: saline with Tween-80 92 % of control

CSCCC(NC(C)=O)C(=O)O.CSCCC(NC(C)=O)C(=O)O.[NH-]C1CCCCC1[NH-].[Pt+2] (configuration not stated)
inactive: endpoint: median survival time, dose: 3.12 mg/kg/injection, schedule: Q04DX003 (ip), vehicle: saline 100 % of control | endpoint: median survival time, dose: 6.25 mg/kg/injection, schedule: Q04DX003 (ip), vehicle: saline 100 % of control | endpoint: median survival time, dose: 12.5 mg/kg/injection, schedule: Q04DX003 (ip), vehicle: saline 97 % of control | endpoint: median survival time, dose: 25.0 mg/kg/injection, schedule: Q04DX003 (ip), vehicle: saline 107 % of control | endpoint: median survival time, dose: 50.0 mg/kg/injection, schedule: Q04DX003 (ip), vehicle: saline 93 % of control | endpoint: median survival time, dose: 100.0 mg/kg/injection, schedule: Q04DX003 (ip), vehicle: saline 98 % of control | endpoint: median survival time, dose: 200.0 mg/kg/injection, schedule: Q04DX003 (ip), vehicle: saline 97 % of control

C[n+]1ccc(Nc2ccc(NC(=O)c3ccc(Nc4cc[n+](C)c5ccc([N+](=O)[O-])cc45)cc3)cc2)cc1
active: endpoint: mean survival time, dose: 16.0 mg/kg/injection, schedule: Q01DX009 (ip), vehicle: water 174 % of control | endpoint: mean survival time, dose: 32.0 mg/kg/injection, schedule: Q01DX009 (ip), vehicle: water 223 % of control | endpoint: mean survival time, dose: 50.0 mg/kg/injection, schedule: Q04DX003 (ip), vehicle: saline 162 % of control | endpoint: mean survival time, dose: 100.0 mg/kg/injection, schedule: Q04DX003 (ip), vehicle: saline 186 % of control | endpoint: mean survival time, dose: 200.0 mg/kg/injection, schedule: Q04DX003 (ip), vehicle: saline 201 % of control
inactive: endpoint: mean survival time, dose: 1.0 mg/kg/injection, schedule: Q01DX009 (ip), vehicle: water 103 % of control | endpoint: mean survival time, dose: 2.0 mg/kg/injection, schedule: Q01DX009 (ip), vehicle: water 110 % of control | endpoint: mean survival time, dose: 4.0 mg/kg/injection, schedule: Q01DX009 (ip), vehicle: water 116 % of control

C#C[C@]1(O)CC[C@H]2[C@@H]3CCc4cc(O)ccc4[C@H]3CC[C@@]21C
inactive: endpoint: median survival time, dose: 31.2 mg/kg/injection, schedule: Q01DX009 (ip), vehicle: saline with Tween-80 106 % of control | endpoint: median survival time, dose: 62.5 mg/kg/injection, schedule: Q01DX009 (ip), vehicle: saline with Tween-80 97 % of control | endpoint: median survival time, dose: 125.0 mg/kg/injection, schedule: Q01DX009 (ip), vehicle: saline with Tween-80 97 % of control | endpoint: median survival time, dose: 250.0 mg/kg/injection, schedule: Q01DX009 (ip), vehicle: saline with Tween-80 101 % of control | endpoint: median survival time, dose: 500.0 mg/kg/injection, schedule: Q01DX009 (ip), vehicle: saline with Tween-80 104 % of control

O=C([O-])[O-].O=S(=O)(O)O.[Co+3].[NH2-].[NH2-].[NH2-].[NH2-]
inactive: endpoint: mean survival time, dose: 100.0 mg/kg/injection, schedule: Q04DX002 (ip), vehicle: saline with Tween-80 100 % of control | endpoint: mean survival time, dose: 400.0 mg/kg/injection, schedule: Q04DX002 (ip), vehicle: saline with Tween-80 107 % of control
